# Assay results as given in ChEMBL document CHEMBL1138190, “Synthesis and antibacterial activity of novel C12 vinyl ketolides” (J Med Chem, 2006).
# Calls of active or inactive are those of the source. The calls are words filed in the database; no cut-off is given here.
# Columns and labels:
# [1] = system: Haemophilus influenzae; experiment: Antibacterial activity against Haemophilus influenzae 2762; assay type: functional
# [2] = system: Staphylococcus aureus; experiment: Antibacterial activity against Staphylococcus aureus 29213; assay type: functional
# [3] = system: Staphylococcus aureus; experiment: Antibacterial activity against Staphylococcus aureus 33591; assay type: functional
# [4] = system: Streptococcus pneumoniae; experiment: Antibacterial activity against Streptococcus pneumoniae Erm 7985; assay type: functional
# [5] = system: Haemophilus influenzae; experiment: Antibacterial activity against Haemophilus influenzae 49247; assay type: functional
# [6] = system: Streptococcus pneumoniae; experiment: Antibacterial activity against Streptococcus pneumoniae Mef 6966; assay type: functional
# [7] = system: Streptococcus pneumoniae; experiment: Antibacterial activity against Streptococcus pneumoniae Erm 6849; assay type: functional
# [8] = system: Streptococcus pneumoniae; experiment: Antibacterial activity against Streptococcus pneumoniae Erm 3120; assay type: functional
# [9] = system: Rattus norvegicus; experiment: Efficacy against Streptococcus pneumoniae Mef in Sprague-Dawley rat lung infection model at 100 mg/kg; assay type: functional, organism-based; parameters: dose 100 mg/kg
# [10] = system: Streptococcus pneumoniae; experiment: Antibacterial activity against Streptococcus pneumoniae Erm 8947; assay type: functional
# [11] = system: Streptococcus pneumoniae; experiment: Antibacterial activity against Streptococcus pneumoniae Mef 3449; assay type: functional
# [12] = system: Streptococcus pneumoniae; experiment: Antibacterial activity against Streptococcus pneumoniae Erm 8339; assay type: functional
# [13] = Lung-to-plasma AUC ratio in Sprague-Dawley rat at 5 mg/kg, iv; assay type: ADME, organism-based; parameters: dose 5 mg/kg, route intravenous; settings: lung and plasma
# [14] = system: Streptococcus pneumoniae; experiment: Antibacterial activity against Streptococcus pneumoniae Erm 6396; assay type: functional
# [15] = system: Rattus norvegicus; experiment: Efficacy against Streptococcus pneumoniae Erm in Sprague-Dawley rat lung infection model at 100 mg/kg; assay type: functional, organism-based; parameters: dose 100 mg/kg
# [16] = system: Streptococcus pneumoniae; experiment: Antibacterial activity against Streptococcus pneumoniae 49619; assay type: functional
# [17] = system: Streptococcus pneumoniae; experiment: Antibacterial activity against Streptococcus pneumoniae Erm S 4085; assay type: functional
# [18] = system: Streptococcus pneumoniae; experiment: Antibacterial activity against Streptococcus pneumoniae Mef 5654; assay type: functional
# [19] = system: Streptococcus pneumoniae; experiment: Antibacterial activity against Streptococcus pneumoniae Erm S 4297; assay type: functional
# [20] = Lung half life in Sprague-Dawley rat at 15 mg/kg, po; assay type: ADME, organism-based; parameters: dose 15 mg/kg, route oral
# [21] = system: Staphylococcus epidermidis; experiment: Antibacterial activity against Staphylococcus epidermidis 14990; assay type: functional
# [22] = system: Streptococcus pneumoniae; experiment: Antibacterial activity against Streptococcus pneumoniae Mef 1556; assay type: functional
# [23] = system: Streptococcus pneumoniae; experiment: Antibacterial activity against Streptococcus pneumoniae Erm 5399; assay type: functional
# [24] = system: Streptococcus pneumoniae; experiment: Antibacterial activity against Streptococcus pneumoniae Mef 983; assay type: functional
# [25] = system: Streptococcus pneumoniae; experiment: Antibacterial activity against Streptococcus pneumoniae Mef S 3427; assay type: functional
# [26] = system: Streptococcus pneumoniae; experiment: Antibacterial activity against Streptococcus pneumoniae Erm 8257; assay type: functional
# [27] = Oral bioavailability in Sprague-Dawley rat at 100 mg/kg, po; assay type: ADME, organism-based; settings: in vivo
# [28] = system: Streptococcus pneumoniae; experiment: Antibacterial activity against Streptococcus pneumoniae Erm 4290; assay type: functional
# [29] = system: Streptococcus pneumoniae; experiment: Antibacterial activity against Streptococcus pneumoniae Erm 4589; assay type: functional
# [30] = system: Streptococcus pneumoniae; experiment: Antibacterial activity against Streptococcus pneumoniae Erm 867; assay type: functional
# [31] = Clearance in Sprague-Dawley rat at 5 mg/kg, iv and 15 mg/kg, po; assay type: ADME, organism-based; settings: in vivo
# [32] = system: Streptococcus pneumoniae; experiment: Antibacterial activity against Streptococcus pneumoniae Mef 1566; assay type: functional
# [33] = system: Streptococcus pneumoniae; experiment: Antibacterial activity against Streptococcus pneumoniae Erm 2218; assay type: functional
# [34] = system: Streptococcus pneumoniae; experiment: Antibacterial activity against Streptococcus pneumoniae Erm 10279; assay type: functional
# [35] = system: Streptococcus pneumoniae; experiment: Antibacterial activity against Streptococcus pneumoniae Mef 9959; assay type: functional
# [36] = system: Streptococcus pneumoniae; experiment: Antibacterial activity against Streptococcus pneumoniae Mef 4331; assay type: functional
# [37] = system: Streptococcus pneumoniae; experiment: Antibacterial activity against Streptococcus pneumoniae Mef 2880; assay type: functional
# [38] = system: Streptococcus pneumoniae; experiment: Antibacterial activity against Streptococcus pneumoniae Mef S 3435; assay type: functional
# [39] = system: Streptococcus pneumoniae; experiment: Antibacterial activity against Streptococcus pneumoniae Mef 953; assay type: functional
# [40] = Volume of distribution in Sprague-Dawley rat at 5 mg/kg, iv and 15 mg/kg, po; assay type: ADME, organism-based; settings: in vivo, read-out: Vdss
# [41] = system: Enterococcus faecalis; experiment: Antibacterial activity against Enterococcus faecalis 29212; assay type: functional
# [42] = system: Streptococcus pneumoniae; experiment: Antibacterial activity against Streptococcus pneumoniae Mef 3855; assay type: functional
# [43] = system: Rattus norvegicus; experiment: Efficacy against Haemophilus influenzae in Sprague-Dawley rat lung infection model at 100 mg/kg; assay type: functional, organism-based; parameters: dose 100 mg/kg
# [44] = system: Streptococcus pneumoniae; experiment: Antibacterial activity against Streptococcus pneumoniae Erm 5415; assay type: functional
# [45] = system: Streptococcus pneumoniae; experiment: Antibacterial activity against Streptococcus pneumoniae Erm 5554; assay type: functional
# [46] = system: Streptococcus pneumoniae; experiment: Antibacterial activity against Streptococcus pneumoniae Mef 4126; assay type: functional
# [47] = system: Streptococcus pneumoniae; experiment: Antibacterial activity against Streptococcus pneumoniae Erm 8919; assay type: functional
# [48] = system: Streptococcus pneumoniae; experiment: Antibacterial activity against Streptococcus pneumoniae Mef 1790; assay type: functional
# [49] = system: Streptococcus pneumoniae; experiment: Antibacterial activity against Streptococcus pneumoniae Mef 9142; assay type: functional
# [50] = system: Streptococcus pneumoniae; experiment: Antibacterial activity against Streptococcus pneumoniae Erm 5354; assay type: functional
# [51] = system: Streptococcus pneumoniae; experiment: Antibacterial activity against Streptococcus pneumoniae 280-962; assay type: functional
# [52] = system: Streptococcus pneumoniae; experiment: Antibacterial activity against Streptococcus pneumoniae Erm 5590; assay type: functional
# [53] = system: Enterococcus faecalis; experiment: Antibacterial activity against Enterococcus faecalis bc11148-2; assay type: functional
# [54] = system: Streptococcus pneumoniae; experiment: Antibacterial activity against Streptococcus pneumoniae Mef 5649; assay type: functional
# [55] = system: Streptococcus pneumoniae; experiment: Antibacterial activity against Streptococcus pneumoniae Mef 2382; assay type: functional
# [56] = system: Streptococcus pneumoniae; experiment: Antibacterial activity against Streptococcus pneumoniae 297-749; assay type: functional
# [57] = system: Staphylococcus epidermidis; experiment: Antibacterial activity against Staphylococcus epidermidis f50654; assay type: functional
# [58] = system: Streptococcus pneumoniae; experiment: Antibacterial activity against Streptococcus pneumoniae Mef 41; assay type: functional
# [59] = system: Streptococcus pneumoniae; experiment: Antibacterial activity against Streptococcus pneumoniae Erm 6388; assay type: functional
# [60] = system: Streptococcus pyogenes; experiment: Antibacterial activity against Streptococcus pyogenes 8668; assay type: functional
# [61] = system: Streptococcus pneumoniae; experiment: Antibacterial activity against Streptococcus pneumoniae Mef 10095; assay type: functional
smiles,measurement,setting,value
CC[C@H]1OC(=O)[C@H](C)C(=O)[C@H](C)[C@@H](O[C@@H]2O[C@H](C)C[C@H](N(C)C)[C@H]2O)[C@](C)(OC)C[C@@H](C)C(=O)[C@H](C)[C@H]2N(CCCCn3cnc(-c4cccnc4)c3)C(=O)O[C@]12C [TELITHROMYCIN],MIC,[1],0.4 µg/mL
same,MIC,[2],0.1 µg/mL
same,MIC,[3],> 50 µg/mL
same,MIC,[4],≤ 0.013 µg/mL
same,MIC,[5],3.13 µg/mL
same,MIC,[6],0.25 µg/mL
same,MIC,[7],0.2 µg/mL
same,MIC,[8],0.1 µg/mL
same,Activity,[9],inactive
same,MIC,[10],0.1 µg/mL
same,MIC,[11],0.25 µg/mL
same,MIC,[12],0.78 µg/mL
same,Kp,[13],16
same,MIC,[14],0.1 µg/mL
same,Activity,[15],inactive
same,MIC,[16],≤ 0.05 µg/mL
same,MIC,[17],≤ 0.013 µg/mL
same,MIC,[18],0.5 µg/mL
same,MIC,[19],0.1 µg/mL
same,half-life,[20],1.3 h
same,MIC,[21],0.1 µg/mL
same,MIC,[22],0.13 µg/mL
same,MIC,[23],≤ 0.013 µg/mL
same,MIC,[24],0.5 µg/mL
same,MIC,[25],0.13 µg/mL
same,MIC,[26],≤ 0.013 µg/mL
same,bioavailability,[27],84%
same,MIC,[28],≤ 0.013 µg/mL
same,MIC,[29],0.025 µg/mL
same,MIC,[30],0.025 µg/mL
same,clearance,[31],100 mL/min/kg
same,MIC,[32],0.5 µg/mL
same,MIC,[33],0.025 µg/mL
same,MIC,[34],0.025 µg/mL
same,MIC,[35],0.25 µg/mL
same,MIC,[36],1 µg/mL
same,MIC,[37],0.13 µg/mL
same,MIC,[38],0.06 µg/mL
same,MIC,[39],0.13 µg/mL
same,Vd,[40],5 L/kg
same,MIC,[41],≤ 0.05 µg/mL
same,MIC,[42],0.25 µg/mL
same,Activity,[43],inactive
same,MIC,[44],0.025 µg/mL
same,MIC,[45],0.2 µg/mL
same,MIC,[46],0.06 µg/mL
same,MIC,[47],0.025 µg/mL
same,MIC,[48],0.5 µg/mL
same,MIC,[49],0.5 µg/mL
same,MIC,[50],0.025 µg/mL
same,MIC,[51],≤ 0.05 µg/mL
same,MIC,[52],≤ 0.013 µg/mL
same,MIC,[53],0.4 µg/mL
same,MIC,[54],0.5 µg/mL
same,MIC,[55],0.25 µg/mL
same,MIC,[56],≤ 0.05 µg/mL
same,MIC,[57],0.1 µg/mL
same,MIC,[58],0.13 µg/mL
same,MIC,[59],0.78 µg/mL
same,MIC,[60],≤ 0.05 µg/mL
same,MIC,[61],0.06 µg/mL
